As usually defined, the viability, T/C is the ratio of treated to control. The term IC50 denotes the concentration that inhibits the measured activity by half.

Several values for one entry are separate records, joined by “and”; a condition that tells them apart may be missing. Equal values may be shown once.

The assay has as its system 439559-082-T-J2-PDC spheroids viability. The assay is described as follows: Anticancer human tumor 439559-082-T-J2-PDC patient-derived colon adenocarcinoma cell line growth inhibition [GQUAD]. As to conditions: for viability, T/C: stronger effect = lower value. The text has this: DNA G-quadruplex Stabilizer Agents in Combinations in Complex Spheroids
A high-throughput screen of multi-cell type tumor spheroids was designed to identify active combinations of DNA G-quadruplex stabilizer agents and targeted small molecules. Complex spheroids include a stromal component modeled by human endothelial cells (HUVEC) and fibroblasts modeled by human mesenchymal stem cells (MSCs). The concentration ranges selected for each drug and investigational agent were based upon clinically achievable concentrations if the clinical Cmax of the agent was known.
Compounds. The drugs and investigational agents: pidnarulex (CX-5461; NSC782164), APTO-253 (NSC789042), BRACO-19 (NSC847499), peposertib (NSC802822), ceralasertib (NSC780249), elimusertib (NSC800525), camonsertib (NSC841442), AZD-1390 (NSC803789), olaparib (NSC753686), talazoparib (NSC767125), ART-558 (NSC835418), sotorasib (NSC818433), MRTX-1133 (NSC836407), SN-38 (NSC673596), topotecan (NSC609699), etoposide (NSC141540), doxorubicin (NSC123127), gemcitabine (NSC613327), 5-fluorouracil (NSC19893), paclitaxel (NSC125973), vemurafenib (NSC761431), panobinostat (NSC761190), R-306465 (JNJ-16241199; NSC773264), adavosertib (NSC754352), TP-3654 (NSC805149), carboplatin (NSC241240), KSQ-4279 (NSC840948), and staurosporine (NSC755774) were obtained from the National Cancer Institute (NCI) Developmental Therapeutics Program Chemical Repository (34). The FDA-approved anticancer drug set is available from the NCI Developmental Therapeutics Program. […] The stock solutions were prepared in dimethyl sulfoxide (DMSO, Sigma-Aldrich, St. Louis, MO, cat. D2650) at 800-fold the tested concentration and stored at -70 degrees C prior to their use. All drugs and investigational agents were tested over a range starting from a high concentration at or near the clinical Cmax and decreasing in half-log increments. If the clinical Cmax for an agent had not been determined, the highest concentration tested was 10 microM.
2.3 Cell Culture. All cells were maintained in an incubator at 37 degrees C and 5% CO2 with 95% humidity. The PDC lines were cultured according to standard operating procedures established by the NCI PDMR. All PDCs were thawed and cultured in Matrigel-coated flasks prepared with a working solution of 1X Ham's F-12 nutrient mix, without supplementation (Invitrogen, cat. 11765054), 100 U/mL penicillin-streptomycin (Invitrogen, cat. 15140122), and 2.5% Matrigel (Corning Inc., cat. 354248) for the first three passages. The 857933-349-R-J2-PDC line was cultured in 6C/Colon 1B media, which includes advanced DMEM/F-12 (Thermo Fisher Scientific, cat. 12634028), 10 mM HEPES (Thermo Fisher Scientific, cat. 15630080), 1X GlutaMAX supplement (Thermo Fisher Scientific, cat. 35050061), 0.1 mg/mL primocin (InvivoGen, cat. ant-pm-2), 10% defined fetal bovine serum, heat inactivated (HyClone Laboratories Inc., cat. SH30070.03HI), 50% L-WRN conditioned media (ATCC, cat. CRL-3276), 1.25 mM N-Acetyl-L-cysteine (Sigma-Aldrich, cat. A9165), 10 mM nicotinamide (Sigma-Aldrich, cat. N0636), 1X B-27 supplement (Thermo Fisher Scientific, cat. 17504044), 1X N-2 supplement (Thermo Fisher Scientific, cat. 17502048), 10 microM Y-27632 dihydrochloride (Tocris Bioscience, cat. 1254), and 50 ng/mL human EGF recombinant protein (Thermo Fisher Scientific, cat. PHG0311). The 485176-168-R4-J1-PDC line was cultured in Panc media, which includes all 6C/Colon 1B media components plus 100 ng/mL human FGF-10 (Thermo Fisher Scientific, cat. 100-26), 500 nM SB-431542 (Selleckchem, cat. S1067), and gastrin (Tocris, cat. 3006).
[…]

Where [1] appears, read: compound alone, run of 04/16/2024.
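Further: spheroids exposed to the agents for 7 days before readout.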
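Wherever viability, T/C is given: percent of luminescence signal in DMSO vehicle wells taken as 100% viability.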

Regarding `COc1ccc([C@@H](O)c2cc(-c3ncnc4cc(N5CCOCC5)ccc34)c(F)cc2Cl)nn1`, the viability, T/C by setting is: (compound 0.0316 µM) 101% and 95.3% and 86.2%; (compound 0.1 µM) 85.9% and 92.8% and 85%; (compound 0.316 µM) 94.8% and 100% and 84.1%; (compound 1 µM) 98.8% and 88.3% and 102%; (compound 3.16 µM) 86.5% and 77.7% and 79.9%; (compound 10 µM) 91.6% and 78% and 75.7%. For the same compound, the IC50 (curve of compound) is > 10 µM.

For the compound `COc1cccc2c1C(=O)c1c(O)c3c(c(O)c1C2=O)CC(O)(C(=O)CO)CC3OC1CC(N)C(O)C(C)O1` (stereo unspecified), the viability, T/C runs as follows: (compound 0.0316 µM) 95.9% and 97.8% and 102%; (compound 0.1 µM) 95.7% and 105% and 90.6%; (compound 0.316 µM) 88.5% and 84.1% and 81.5%; (compound 1 µM) 78.7% and 80.2% and 79.4%; (compound 3.16 µM) 61.8% and 57.9% and 63.3%; (compound 10 µM) 51.2% and 41.3% and 43.4%. Under “curve of compound”, the IC50 was > 10 µM and 5.6 µM and 7.09 µM.

With `Cc1[nH]c2ccc(F)cc2c1-c1nc2c3cccnc3c3ncccc3c2[nH]1`, the viability, T/C reads like this: (compound 0.0316 µM) 103% [middle of 12 runs]; (compound 0.1 µM) 102% [middle of 12 runs]; (compound 0.316 µM) 100% [middle of 12 runs]; (compound 1 µM) 94.9% [middle of 12 runs]; (compound 3.16 µM) 86.4% [middle of 12 runs]; (compound 10 µM) 89.3% [middle of 12 runs]. The IC50 runs as follows: under setting [1], > 10 µM; (compound alone, run of 04/22/2024) > 10 µM.

For the compound `Cc1[nH]c2ccccc2c1CCNCc1ccc(/C=C/C(=O)NO)cc1`, the viability, T/C was 105% and 91.6% and 99.8% (compound 0.000999 µM); 94.6% and 105% and 93.3% (compound 0.00316 µM); 91.2% and 92.3% and 95.4% (compound 0.00999 µM); 112% and 84.7% and 91.9% (compound 0.0316 µM); 110% and 81.7% and 79% (compound 0.0999 µM); 101% and 63.2% and 61.6% (compound 0.316 µM). The IC50 (curve of compound) was > 0.316 µM.

Turning to `Cc1cccc(N(C)C(=O)C2C(O)CCN2c2nc(C)cc(C(F)(F)F)c2C#N)c1` (stereo unspecified), the viability, T/C (compound 0.0316 µM) is 93.8% and 107% and 103%; the viability, T/C (compound 0.1 µM) was 105% and 93.7% and 99.7%; the viability, T/C (compound 0.316 µM) was 106% and 102% and 85.8%; the viability, T/C (compound 1 µM) was 109% and 97.2% and 108%; the viability, T/C (compound 3.16 µM) was 116% and 104% and 109%; the viability, T/C (compound 10 µM) is 88.7% and 92.6% and 98.5%. Also, the 50% inhibitory concentration (IC50) (curve of compound) is > 10 µM.

For the compound `Cc1cnc(CNC(=O)c2c(=O)c3ccc(N4CCCN(C)CC4)nc3n3c2sc2ccccc23)cn1`, the viability, T/C reads like this: (compound 0.0316 µM) 98.7% [middle of 12 runs]; (compound 0.1 µM) 93% [middle of 12 runs]; (compound 0.316 µM) 88.6% [middle of 12 runs]; (compound 1 µM) 81.6% [middle of 12 runs]; (compound 3.16 µM) 75.7% [middle of 12 runs]; (compound 10 µM) 75.7% [middle of 12 runs]. Moreover, the half-maximal inhibitory concentration (IC50) under setting [1] was > 10 µM.

For the compound `Cn1ncnc1[C@H]1c2n[nH]c(=O)c3cc(F)cc(c23)N[C@@H]1c1ccc(F)cc1`, the viability, T/C was 92.5% and 104% and 94.8% (compound 0.000999 µM); 84.5% and 91.5% and 115% (compound 0.00316 µM); 84.5% and 99.1% and 95.4% (compound 0.00999 µM); 87.8% and 102% (2×) (compound 0.0316 µM); 94.9% and 96.3% and 91.8% (compound 0.0999 µM); 91.2% and 91.9% and 86.3% (compound 0.316 µM). Besides, the concentration for half-maximal inhibition (IC50) (curve of compound) was > 0.316 µM.

Take `Nc1ccn(C2OC(CO)C(O)C2(F)F)c(=O)n1` (stereo unspecified): the viability, T/C (compound 0.0316 µM) is 83.6% and 83.2% and 89.5%; the viability, T/C (compound 0.1 µM) is 74.3% and 67.4% and 60.4%; the viability, T/C (compound 0.316 µM) was 53.7% and 46.2% and 49.7%; the viability, T/C (compound 1 µM) is 38.5% and 30.7% and 32.6%; the viability, T/C (compound 3.16 µM) is 28.2% and 25.8% and 28.4%; the viability, T/C (compound 10 µM) was 22.9% and 26.9% and 23.2%. The half-inhibitory concentration (IC50) (curve of compound) was 0.444 µM and 0.249 µM and 0.24 µM.

`O=C(c1cc(Cc2n[nH]c(=O)c3ccccc23)ccc1F)N1CCN(C(=O)C2CC2)CC1`: the viability, T/C (compound 0.0316 µM) is 90.9% and 100% and 96.4%; the viability, T/C (compound 0.1 µM) is 103% and 97.7% and 97.9%; the viability, T/C (compound 0.316 µM) was 94.8% and 86.2% and 99.2%; the viability, T/C (compound 1 µM) was 98.9% and 98.6% and 98.4%; the viability, T/C (compound 3.16 µM) is 123% and 104% and 94.1%; the viability, T/C (compound 10 µM) is 91.1% and 89.6% and 94.1%. Where the note is “curve of compound”, the IC50 was > 10 µM.

Take `O=c1[nH]cc(F)c(=O)[nH]1`: the viability, T/C is, setting by setting: (compound 0.0316 µM) 93.1% and 96.1% and 94.6%; (compound 0.1 µM) 103% and 102% and 97.4%; (compound 0.316 µM) 85.9% and 79.7% and 88.7%; (compound 1 µM) 76.7% and 78.2% and 78.6%; (compound 3.16 µM) 79.4% and 74.2% and 76.8%; (compound 10 µM) 71.5% and 77.1% and 70.3%. In addition, for the setting “curve of compound”, the half-maximal inhibitory concentration (IC50) was > 10 µM.

The values are drawn from PubChem BioAssay AID2060510 (Molecular Pharmacology Branch, DTP, NCI, 2025).
